We go through 25 compounds from patent publication US8158631B2, “Heterocyclic antiviral compounds” (Roche Palo Alto LLC, priority 2009, dated 2012).

The structures appear in SMILES notation.

Series [1] concerns the target T1, HCV polymerase (NS5B570n-Con1) (Hepatitis C virus genotype 1b, UniProt Q9WMX2).
T1 construct: contains a 21 amino acid deletion at the C-terminus relative to the full-length HCV polymerase; made in house; host or cells: E. coli strain BL21(DE) pLysS, plasmid pET17b
The series can be described thus: HCV NS5B RNA polymerase activity (HCV Polymerase Assay). The class given is biochemical, HCV Con1 strain. As for the experimental part:
The enzymatic activity of HCV polymerase (NS5B570n-Con1) was measured as the incorporation of radiolabeled nucleotide monophosphates into acid insoluble RNA products. Unincorporated radiolabeled substrate was removed by filtration and scintillant was added to the washed and dried filter plate containing radiolabeled RNA product. The amount of RNA product generated by NS5B570-Con1 at the end of the reaction was directly proportional to the amount of light emitted by the scintillant.
The N-terminal 6-histidine tagged HCV polymerase, derived from HCV Con1 strain, genotype 1b (NS5B570n-Con1) contains a 21 amino acid deletion at the C-terminus relative to the full-length HCV polymerase and was purified from E. coli strain BL21(DE) pLysS. The construct, containing the coding sequence of HCV NS5B Con1 (GenBank accession number AJ242654) was inserted into the plasmid construct pET17b, downstream of a T7 promoter expression cassette and transformed into E. coli. A single colony was grown overnight as a starter culture and later used inoculate 10 L of LB media supplemented with 100 μg/mL ampicillin at 37° C. Protein expression was induced by the addition of 0.25 mM isopropyl-β-D-thiogalactopyranoside (IPTG) when optical density at […] of the culture was between 0.6 and 0.8 and cells were harvested after 16 to 18 h at 30° C. NS5B570n-Con1 was purified to homogeneity using a three-step protocol including subsequent column chromatography on Ni-NTA, SP-Sepharose HP and Superdex 75 resins.
Each 50 μL enzymatic reaction contained 20 nM RNA template derived from the complementary sequence of the Internal Ribosome Entry Site (cIRES), 20 nM NS5B570n-Con1 enzyme, 0.5 μCi of tritiated UTP (Perkin Elmer catalog no. TRK-412; specific activity: 30 to 60 Ci/mmol; stock solution concentration from 7.5×10^−5 M to 20.6×10^−6 M), 1 μM each ATP, CTP, and GTP, 40 mM Tris-HCl pH 8.0, 40 mM NaCl, 4 mM DTT (dithiothreitol), 4 mM MgCl2, and 5 μL of compound serial diluted in DMSO. Reaction mixtures were assembled in 96-well filter plates (cat #MADVNOB, Millipore Co.) and incubated for 2 h at 30° C. Reactions were stopped by addition of 10% final (v/v) trichloroacetic acid and incubated for 40 min at 4° C. Reactions were filtered, washed with 8 reaction volumes of 10% (v/v) trichloroacetic acetic acid, 4 reaction volumes of 70% (v/v) ethanol, air dried, and 25 μL of scintillant (Microscint 20, Perkin-Elmer) was added to each reaction well.
The amount of light emitted from the scintillant was converted to counts per minute (CPM) on a Topcount® plate reader (Perkin-Elmer, Energy Range: Low, Efficiency Mode Normal, Count Time: 1 min, Background Subtract: none, Cross talk reduction: Off).
Data was analyzed in Excel® (Microsoft®) and ActivityBase® (Idbs®). The reaction in the absence of enzyme was used to determine the background signal, which was subtracted from the enzymatic reactions. Positive control reactions were performed in the absence of compound, from which the background corrected activity was set as 100% polymerase activity. All data was expressed as a percentage of the positive control.
The compound concentration at which the enzyme-catalyzed rate of RNA synthesis was reduced by 50% (IC50) was calculated by fitting equation (i) to the data where“Y”
[formula] corresponds to the relative enzyme activity (in %), “% Min” is the residual relative activity at saturating compound concentration, “% Max” is the relative maximum enzymatic activity, “X” corresponds to the compound concentration, and “S” is the Hill coefficient (or slope).

In the next series the test system is HCV. The conditions noted are these: cited from earlier work.

`COc1c(/C=C/c2ccc(NS(C)(=O)=O)cc2)cc(N2CCCNC2=O)cc1C(C)(C)C` [Compound I-2, N-(4-{(E)-2-[3-tert-Butyl-2-methoxy-5-(2-oxo-tetrahydro-pyrimidin-1-yl)-phenyl]-vinyl}-phenyl)-methanesulfonamide]: 10 nM corresponded to half-maximal inhibition in series [1] (IC50).
Take `COc1c(CCc2ccc(NS(C)(=O)=O)cc2)cc(N2CCCNC2=O)cc1C(C)(C)C` [Compound I-3, N-(4-{2-[3-tert-Butyl-2-methoxy-5-(2-oxo-tetrahydro-pyrimidin-1-yl)-phenyl]-ethyl}-phenyl)-methanesulfonamide]: the melting point lay in the range of 244 to 246 °C. The same compound displayed an IC50 in series [1] of 13 nM.
`COc1c(CCc2ccc(NS(C)(=O)=O)cc2)cc(N2CCNC2=O)cc1C(C)(C)C` [Compound I-4]: the melting point lay in the range of 229 to 231 °C. The compound further returned an IC50 in series [1] of 32 nM.
The compound `COc1c(CCc2ccc(NS(C)(=O)=O)cc2)cc(N2C(=O)CCNC2=O)cc1C(C)(C)C` [Compound I-6, N-(4-{2-[3-tert-Butyl-5-(2,6-dioxo-tetrahydro-pyrimidin-1-yl)-2-methoxy-phenyl]-ethyl}-phenyl)-methanesulfonamide] registered an IC50 in series [1] of 63 nM.
As to `COc1c(CCc2ccc(NS(C)(=O)=O)cc2)cc(N2C(=O)CNC2=O)cc1C(C)(C)C` [Compound I-7, N-(4-{2-[3-tert-Butyl-5-(2,5-dioxo-imidazolidin-1-yl)-2-methoxy-phenyl]-ethyl}-phenyl)-methanesulfonamide], the melting point was 230 to 231 °C. In series [1], this compound showed an IC50 of 15 nM.
The matching figures for `COc1c(/C=C/c2ccc(NS(C)(=O)=O)cc2)cc(N2CCCCC2=O)cc1C(C)(C)C` [Compound I-8, N-(4-{(E)-2-[3-tert-Butyl-2-methoxy-5-(2-oxo-piperidin-1-yl)-phenyl]-vinyl}-phenyl)-methanesulfonamide]: 247 to 249 °C and 16 nM.
With `COc1c(/C=C/c2ccc(NS(C)(=O)=O)cc2)cc(-n2ccccc2=O)cc1C(C)(C)C` [Compound I-9, N-(4-{(E)-2-[3-tert-Butyl-2-methoxy-5-(2-oxo-2H-pyridin-1-yl)-phenyl]-vinyl}-phenyl)-methanesulfonamide], the melting point was 254 to 256 °C. The same compound registered an IC50 in series [1] of 1 nM.
For the compound `COc1c(/C=C/c2ccc(NS(C)(=O)=O)cc2)cc(-n2cc(F)ccc2=O)cc1C(C)(C)C` [Compound I-10], the melting point fell in the range of 248 to 250 °C. In addition, inhibition in series [1] was half-maximal at 5 nM (IC50).
The matching figures for `COc1c(/C=C/c2ccc(NS(C)(=O)=O)cc2)cc(-n2ncccc2=O)cc1C(C)(C)C` [Compound I-11]: 260 to 262 °C and 0.38 nM.
The matching figures for `COc1c(/C=C/c2ccc(NS(C)(=O)=O)cc2)cc(-n2cnccc2=O)cc1C(C)(C)C` [Compound I-12]: 202 to 204 °C and 1 nM.
Compound `COC(=O)c1cc(NS(C)(=O)=O)ccc1/C=C/c1cc(-n2ccncc2=O)cc(C(C)(C)C)c1OC` [Compound I-15, 2-{(E)-2-[3-tert-Butyl-2-methoxy-5-(2-oxo-2H-pyrazin-1-yl)-phenyl]-vinyl}-5-methanesulfonylamino-benzoic acid methyl ester] returned an IC50 in series [1] of 1 nM.
`COc1c(/C=C/c2ccc(NS(C)(=O)=O)cc2C(=O)O)cc(-n2ccncc2=O)cc1C(C)(C)C` [Compound I-16]: the melting point was in the range of 176 to 179 °C. In addition, in series [1], the IC50 turned out to be 0.39 nM.
In the case of `COc1c(/C=C/c2ccc(NS(C)(=O)=O)cc2CO)cc(-n2ccncc2=O)cc1C(C)(C)C` [Compound I-17, N-(4-{(E)-2-[3-tert-Butyl-2-methoxy-5-(2-oxo-2H-pyrazin-1-yl)-phenyl]-vinyl}-3-hydroxymethyl-phenyl)-methanesulfonamide], the melting point lay within 238 to 240 °C. For the same compound, the IC50 in series [1] stood at 0.49 nM.
`COc1c(/C=C/c2ccccc2C(=O)O)cc(-n2ccccc2=O)cc1C(C)(C)C` [Compound I-18] returned an IC50 in series [1] of 5 nM.
With `COc1c(/C=C/c2ccccc2C(=O)O)cc(-n2ccncc2=O)cc1C(C)(C)C` [Compound I-19, 2-{(E)-2-[3-tert-Butyl-2-methoxy-5-(2-oxo-2H-pyrazin-1-yl)-phenyl]-vinyl}-benzoic acid], in series [1], the IC50 is 2 nM.
Compound `COc1c(CCc2ccc(NS(C)(=O)=O)cc2)cc(N2CCCS2(=O)=O)cc1C(C)(C)C` [Compound I-20] registered a melting point of 83 to 86 °C. Also, the midpoint of inhibition in series [1], the IC50, lay at 83 nM.
The matching figures for `COc1c(/C=C/c2ccc(NS(C)(=O)=O)cc2C(=O)O)cc(N2CCCNC2=O)cc1C(C)(C)C` [Compound I-21]: 275 to 278 °C and 0.23 nM.
The matching figures for `COc1c(-c2cc3ccc(NS(C)(=O)=O)cc3c(=O)o2)cc(-n2ccncc2=O)cc1C(C)(C)C` [Compound I-22]: 272 to 275 °C and 3 nM.
On to `COc1c(/C=C/c2ccc(NS(C)(=O)=O)cc2)cc(-n2ccc(=O)[nH]c2=O)c2c1C(C)(C)CO2` [Compound I-23, N-(4-{(E)-2-[7-(2,4-Dioxo-3,4-dihydro-2H-pyrimidin-1-yl)-4-methoxy-3,3-dimethyl-2,3-dihydro-benzofuran-5-yl]-vinyl}-phenyl)-methanesulfonamide], for which the melting point lay within 285 to 288 °C. Moreover, the midpoint of inhibition in series [1], the IC50, lay at 0.37 nM.
In series [1], `COc1c(-c2nc3cc(NS(C)(=O)=O)ccc3o2)cc(N2CCCNC2=O)cc1C(C)(C)C` [Compound I-24, N-{2-[3-tert-Butyl-2-methoxy-5-(2-oxo-tetrahydro-pyrimidin-1-yl)-phenyl]-benzooxazol-5-yl}-methanesulfonamide] came in with a 50% inhibitory concentration (IC50) of 63.3 nM.
`COc1c(CCc2ccc(NS(C)(=O)=O)cc2)cc(N2C(=O)NC(C)C2=O)cc1C(C)(C)C` (centres unmarked) [Compound I-25] returned a melting point of 211 to 212 °C. In addition, the IC50 in series [1] is 19 nM.
In turn, `COc1c(/C=C/c2ccc(NS(C)(=O)=O)cc2)cc(N2CCCNS2(=O)=O)cc1C(C)(C)C` [Compound I-26, N-(4-{(E)-2-[3-tert-Butyl-5-(1,1-dioxo-1λ^6-[1,2,6]thiadiazinan-2-yl)-2-methoxy-phenyl]-vinyl}-phenyl)-methanesulfonamide] returned a melting point of 255 to 257 °C. This compound showed a half-inhibitory concentration (IC50) in series [1] of 5.1 nM.
On to `COc1c(/C=C/c2ccc(NS(C)(=O)=O)cc2)cc(-n2c(C)n[nH]c2=O)cc1C(C)(C)C` [Compound I-27, N-(4-{(E)-2-[3-tert-Butyl-2-methoxy-5-(3-methyl-5-oxo-1,5-dihydro-[1,2,4]triazol-4-yl)-phenyl]-vinyl}-phenyl)-methanesulfonamide], for which the melting point was 289 to 291 °C. The compound further came in with an IC50 in series [1] of 0.3 nM.
The matching figures for `CC(C)(C)c1cc(/C=C/c2ccc(NS(C)(=O)=O)cc2)cc(N2CCCNC2=O)c1` [I-I, N-(4-{(E)-2-[3-tert-Butyl-5-(2-oxo-tetrahydro-pyrimidin-1-yl)-phenyl]-vinyl}-phenyl)-methanesulfonamide]: 235 to 237 °C and 15 nM.
With `NC(=O)c1ncn([C@@H]2O[C@H](CO)[C@@H](O)[C@H]2O)n1` [ribavirin, 1-((2R,3R,4S,5R)-3,4-Dihydroxy-5-hydroxymethyl-tetrahydro-furan-2-yl)-1H-[1,2,4]triazole-3-carboxylic acid amide], the “patients with serum amino transferase levels reduced to normal” value in the series with HCV (monotherapy) is recorded as 40 % of patients. Moreover, the “effect on serum levels of HCV-RNA” value in the series on HCV (sole treatment / monotherapy) is recorded as “does not lower serum levels of HCV-RNA”.

What is called IC50 is the midpoint of a concentration-inhibition curve. High values mean weaker potency, low ones greater potency. The melting point is the temperature, or range, at which the solid turns liquid.
